Laboratory results reported in paper PMC3928712 (ACS chemical biology, 2013).

Target: 2009 pandemic H1N1 (pH1N1) PAN endonuclease (Influenza A virus, UniProt C3W5S0)
Conditions: for improvement in inhibitory activity compared to 2: relative to compound 2

| SMILES | improvement in inhibitory activity compared to 2 [fold] | IC50 (enzymatic assay, PAN endonuclease) [µM] |
| --- | --- | --- |
| N#Cc1cccc(-c2c[nH]c(=O)c(O)c2)c1 [Compound 3] | 20 | – |
| O=c1[nH]c(-c2ccc(F)cc2)c(-c2ccc(F)cc2)cc1O [Compound 6] | 400 | – |
| O=c1[nH]c(-c2ccccc2)ccc1O [Compound 4] | 40 | – |
| O=c1[nH]cc(Br)cc1O [Compound 2] | – | 16 |
